Test results published in publication PMC2752324 (Bioorganic & medicinal chemistry letters, 2008).

Target: T1, tissue-nonspecific alkaline phosphatase (TNAP) (Homo sapiens, UniProt P05186)
T1 sequence (P05186 18-502 limits assumed): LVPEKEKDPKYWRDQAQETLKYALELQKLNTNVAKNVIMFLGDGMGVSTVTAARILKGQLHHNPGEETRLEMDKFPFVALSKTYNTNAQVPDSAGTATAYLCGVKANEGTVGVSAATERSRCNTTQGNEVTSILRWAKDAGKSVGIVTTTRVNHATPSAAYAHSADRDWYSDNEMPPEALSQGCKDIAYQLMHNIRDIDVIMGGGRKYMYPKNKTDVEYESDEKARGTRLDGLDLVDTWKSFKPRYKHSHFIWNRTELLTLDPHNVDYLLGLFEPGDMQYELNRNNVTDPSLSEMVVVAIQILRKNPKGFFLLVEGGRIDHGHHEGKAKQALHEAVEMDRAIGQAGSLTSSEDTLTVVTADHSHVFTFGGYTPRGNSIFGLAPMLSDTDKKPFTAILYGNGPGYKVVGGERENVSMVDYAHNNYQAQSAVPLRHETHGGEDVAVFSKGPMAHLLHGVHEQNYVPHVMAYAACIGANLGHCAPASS
Experiment: TNAP luminescence-based inhibition assay
Assay type: biochemical

Row | SMILES | improvement in potency (4 versus tricyclic derivative 3) | selectivity for TNAP (versus PLAP and GAPDH) | times more potent against TNAP (versus screening hit 1)
1 | O=C(c1[nH]nc2c1COc1ccccc1-2)N1CCCC1 [Compound 4] | 3 fold | – | –
2 | O=C(NCCO)c1cc(-c2ccc(Cl)c(Cl)c2Cl)n[nH]1 [Compound 9v] | – | at least 2000 fold | approximately 200 times
